Test results: the supplement of paper PMC12076712

Tests used:
Assay in all cases: pIC50, kinobeads binding competition
CAMK2G = CAMK2G (UniProt Q13555)
How it was run: (§1)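 Jurkat cells were exposed alive to nine compound concentrations (top 30 μM, 1:4 steps) or vehicle for 60 min at 37 °C and then lysed. In a second format, nine concentrations (top 30 μM, 1:5 steps) were incubated for 60 min at 4 °C with Jurkat lysate or with a 1:1:1:1 lysate mix of HEK293, K-562, HepG2 and placenta. Proteins captured on Kinobeads were digested and quantified by TMT10 LC-MS/MS. pIC50 values were derived from logistic dose-response fits (R drc package) of fold changes relative to vehicle, in biological duplicates.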

FGFR2 = FGFR2 (UniProt P21802); conditions: cell material: Lysate mix
How it was run: as §1

HIPK1 = HIPK1 (UniProt Q86Z02)
How it was run: as §1

NEK6 = NEK6 (UniProt Q9HC98); conditions: cell material: Lysate mix
How it was run: as §1

NLK = target: T1, NLK (UniProt Q9UBE8)
T1 sequence (whole entry): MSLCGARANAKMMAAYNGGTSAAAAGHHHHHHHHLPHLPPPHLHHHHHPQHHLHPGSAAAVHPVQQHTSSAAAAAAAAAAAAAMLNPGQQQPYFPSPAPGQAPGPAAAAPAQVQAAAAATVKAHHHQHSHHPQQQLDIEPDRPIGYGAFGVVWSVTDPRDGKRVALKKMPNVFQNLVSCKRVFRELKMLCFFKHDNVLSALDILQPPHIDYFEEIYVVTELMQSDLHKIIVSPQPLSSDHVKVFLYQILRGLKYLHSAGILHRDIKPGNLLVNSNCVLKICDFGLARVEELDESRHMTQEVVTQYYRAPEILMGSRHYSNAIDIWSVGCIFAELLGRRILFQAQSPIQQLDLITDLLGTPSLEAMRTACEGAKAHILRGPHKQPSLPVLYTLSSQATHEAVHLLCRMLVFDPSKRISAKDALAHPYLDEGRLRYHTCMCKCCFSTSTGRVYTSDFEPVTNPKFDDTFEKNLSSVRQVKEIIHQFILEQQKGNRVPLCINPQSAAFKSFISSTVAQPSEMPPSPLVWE
How it was run: as §1

PIM1 = PIM1 (UniProt P11309); conditions: cell material: Lysate mix
How it was run: as §1

PKN3 = PKN3 (UniProt Q6P5Z2); conditions: cell material: Lysate mix
How it was run: as §1

UniProt O75460 = target: UniProt O75460
How it was run: as §1

UniProt P25098 = target: T2, UniProt P25098
T2 sequence (whole entry): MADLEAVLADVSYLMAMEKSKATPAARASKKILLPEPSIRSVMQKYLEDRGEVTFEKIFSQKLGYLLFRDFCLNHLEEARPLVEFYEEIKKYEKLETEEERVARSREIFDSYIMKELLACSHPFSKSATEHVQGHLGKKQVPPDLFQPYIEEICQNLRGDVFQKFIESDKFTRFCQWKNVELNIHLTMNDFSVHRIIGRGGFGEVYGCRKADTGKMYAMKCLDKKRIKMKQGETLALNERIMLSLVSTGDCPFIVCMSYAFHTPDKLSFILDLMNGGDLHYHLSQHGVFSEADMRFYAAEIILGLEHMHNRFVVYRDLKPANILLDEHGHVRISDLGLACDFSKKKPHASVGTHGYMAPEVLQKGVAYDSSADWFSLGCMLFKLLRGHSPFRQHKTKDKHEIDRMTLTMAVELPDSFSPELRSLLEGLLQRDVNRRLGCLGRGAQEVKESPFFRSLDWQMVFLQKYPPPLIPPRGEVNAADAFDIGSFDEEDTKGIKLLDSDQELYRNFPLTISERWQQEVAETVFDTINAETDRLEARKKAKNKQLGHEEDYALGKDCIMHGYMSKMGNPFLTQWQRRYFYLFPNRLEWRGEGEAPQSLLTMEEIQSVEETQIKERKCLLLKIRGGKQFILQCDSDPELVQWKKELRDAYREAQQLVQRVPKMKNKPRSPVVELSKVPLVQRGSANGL
How it was run: as §1

UniProt P35626 = target: T3, UniProt P35626
T3 sequence (whole entry): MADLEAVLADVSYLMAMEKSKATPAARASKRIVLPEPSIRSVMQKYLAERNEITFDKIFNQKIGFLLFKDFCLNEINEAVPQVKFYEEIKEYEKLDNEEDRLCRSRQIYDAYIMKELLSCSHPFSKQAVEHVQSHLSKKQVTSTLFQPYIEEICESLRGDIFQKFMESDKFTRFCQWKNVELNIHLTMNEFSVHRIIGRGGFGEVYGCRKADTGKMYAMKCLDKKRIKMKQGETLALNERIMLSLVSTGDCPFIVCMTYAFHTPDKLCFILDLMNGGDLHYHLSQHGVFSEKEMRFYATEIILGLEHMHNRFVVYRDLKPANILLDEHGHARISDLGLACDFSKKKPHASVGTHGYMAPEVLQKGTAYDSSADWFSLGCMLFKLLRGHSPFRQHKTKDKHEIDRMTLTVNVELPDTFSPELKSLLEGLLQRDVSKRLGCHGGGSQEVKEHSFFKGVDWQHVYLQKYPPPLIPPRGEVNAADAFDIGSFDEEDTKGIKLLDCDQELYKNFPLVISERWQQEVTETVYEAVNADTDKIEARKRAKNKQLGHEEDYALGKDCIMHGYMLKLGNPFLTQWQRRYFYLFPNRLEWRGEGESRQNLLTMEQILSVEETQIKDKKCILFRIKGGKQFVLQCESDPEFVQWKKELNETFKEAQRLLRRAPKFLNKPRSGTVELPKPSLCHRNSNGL
How it was run: as §1

UniProt P35968 = conditions: cell material: Lysate mix
How it was run: as §1

UniProt P48730 = target: UniProt P48730
How it was run: as §1

UniProt Q14289 = target: UniProt Q14289
How it was run: as §1

UniProt Q5TCX8 = target: UniProt Q5TCX8
How it was run: as §1

UniProt Q8N4C8 = target: UniProt Q8N4C8
How it was run: as §1

Row | SMILES | pIC50 (CAMK2G; cell material: Lysate mix) | pIC50 (FGFR2) | pIC50 (HIPK1; cell material: Lysate mix) | pIC50 (NEK6) | pIC50 (NLK; cell material: Lysate mix) | pIC50 (PIM1) | pIC50 (PKN3) | pIC50 (UniProt O75460; cell material: Lysate mix) | pIC50 (UniProt P25098; cell material: Lysate mix) | pIC50 (UniProt P35626; cell material: Lysate mix) | pIC50 (UniProt P35968) | pIC50 (UniProt P48730; cell material: Lysate mix) | pIC50 (UniProt Q14289; cell material: Lysate mix) | pIC50 (UniProt Q5TCX8; cell material: Lysate mix) | pIC50 (UniProt Q8N4C8; cell material: Lysate mix) | pIC50 (CAMK2G; cell material: Jurkat cells) | pIC50 (CAMK2G; cell material: Jurkat lysate) | pIC50 (HIPK1; cell material: Jurkat cells) | pIC50 (HIPK1; cell material: Jurkat lysate) | pIC50 (NLK; cell material: Jurkat lysate) | pIC50 (UniProt O75460; cell material: Jurkat cells) | pIC50 (UniProt O75460; cell material: Jurkat lysate) | pIC50 (UniProt P25098; cell material: Jurkat cells) | pIC50 (UniProt P25098; cell material: Jurkat lysate) | pIC50 (UniProt P35626; cell material: Jurkat cells) | pIC50 (UniProt P35626; cell material: Jurkat lysate) | pIC50 (UniProt P48730; cell material: Jurkat lysate) | pIC50 (UniProt Q14289; cell material: Jurkat cells) | pIC50 (UniProt Q14289; cell material: Jurkat lysate) | pIC50 (UniProt Q5TCX8; cell material: Jurkat cells) | pIC50 (UniProt Q8N4C8; cell material: Jurkat cells) | pIC50 (UniProt Q8N4C8; cell material: Jurkat lysate)
1 | CCNC(=O)c1cc(Nc2cc(C)[nH]n2)nc(N2CCN(Cc3ccc(S(=O)(=O)F)cc3)CC2)n1 | < 4.52 | < 4.52 | 4.78 | < 4.52 | < 4.52 | < 4.52 | < 4.52 | < 4.52 | < 4.52 | < 4.52 | < 4.52 | < 4.52 | < 4.52 | < 4.52 | < 4.52 | – | – | – | – | – | – | – | – | – | – | – | – | – | – | – | – | –
2 | C#CCNC(=O)c1cc(Nc2cc(C3CC3)[nH]n2)nc(N2CCN(Cc3ccc(S(=O)(=O)F)cc3)CC2)n1 | < 4.52 | 4.94 | 6 | < 4.52 | < 4.52 | < 4.52 | < 4.52 | < 4.52 | – | – | < 4.52 | < 4.52 | < 4.52 | 4.8 | < 4.52 | 5.13 | < 4.52 | 6.08 | 5.37 | < 4.52 | < 4.52 | < 4.52 | 5.69 | < 4.52 | 5.77 | < 4.52 | < 4.52 | 5.98 | < 4.52 | 5.78 | 5.72 | < 4.52
3 | C#CCNC(=O)c1cc(Nc2cc(C)[nH]n2)nc(N2CCN(Cc3ccc(S(=O)(=O)F)cc3)CC2)n1 | < 4.52 | < 4.52 | 5.06 | < 4.52 | < 4.52 | < 4.52 | < 4.52 | < 4.52 | < 4.52 | < 4.52 | < 4.52 | < 4.52 | < 4.52 | < 4.52 | < 4.52 | – | – | – | – | – | – | – | – | – | – | – | – | – | – | – | – | –
